Measurements from patent US20120237567A1, “MODULATING LYMPHATIC FUNCTION” (THE GENERAL HOSPITAL CORPORATION, priority 2004, published 2012).

Experiments:
[1] = system: mouse tail lymphatic network (initial lymphatics); assay: Mouse tail microlymphangiography with residence time distribution (RTD) analysis of lymphatic function; assay type: in vivo, mice (C57BL/6); settings: for overall lymphatic fluid velocity in the dermal lymphatic network: collecting lymphatics not ligated
Procedure: Studies were carried out in 7-10 week old female C57BL/6 and nude mice. Forty-eight mice were used for these experiments: sixteen for the inhibition experiments, fifteen for the ligation experiment, and seventeen additional controls. All procedures were carried out following the guidelines of the Institutional Animal Care and Use Committee of the Massachusetts General Hospital.
Mice in the experimental groups 5 and 6 underwent ligation of the deep collecting lymphatic vessels of the tail immediately before the microlymphangiography, to avoid development of edema (FIG. 1). Mice were anesthetized intramuscularly (90 mg/kg Ketamine and 9 mg/kg Xylazine) and placed on a heated surgical microscopy table. The translucent deep collecting lymphatic vessels were separated from the tail veins with microsurgical forceps through small, bilateral incisions in the axial direction, and ligated with a 10-O non-absorbable suture (Prolene, Ethicon, N.J., United States). The incision site was closed with surgical glue, taking care to avoid circumferential tension on the tail that could interfere with superficial lymphatic function.
Fluorescence intensity measurements were carried out using RTD analysis as described previously (Swartz et al., Am J Physiol. 1996, 270:H324-H329). Briefly, mice were anesthetized intramuscularly (90 mg/kg Ketamine and 9 mg/kg Xylazine) and placed on a small plate. 2.5% FITC-dextran (MW=2 million; Sigma, St. Louis, Mo.) in PBS was infused into the interstitial tissue of the tail tip, with a constant pressure of 40 cm H2O via a 30-gauge needle. […] The mouse was transferred to an epifluorescence microscopy setup as described previously (Leu et al., Am J Physiol. 1994, 267:H1507-H1513). […] The temporally consecutive fluorescent images were analyzed offline using NIH Image Analysis software. The average fluorescence intensity was determined for each image, and used to calculate the mean residence time for each region, the overall lymph fluid velocity in the tail lymphatic network, and the mean LV diameter.

[2] = parameters: species or system C57BL/6 mice; settings: mouse, in vivo
Procedure: 8 week old, female C57BL/6 mice were weighed and anesthetized (90 mg/kg Ketamine and 9 mg/kg Xylazine). Mean arterial pressure (MAP) was measured by cannulating the exposed left carotid artery with a PE-10 intravascular polyethylene catheter, connected to a pressure transducer (Gould Inc, Valley View, Ohio).

[3] = 3 days of treatment, not ligated, mean±SE
[4] = after ligation of the collecting lymphatics, 3 days of treatment, mean±SE

| SMILES | decrease of overall lymphatic fluid velocity compared to controls that had received D-NMMA ([1]; 3 days of L-NMMA treatment, not ligated) [%] | overall lymphatic fluid velocity in the dermal lymphatic network ([1]; 3 days of treatment, mean±SE) [μm/s] | injection rate of the fluorescent tracer into the interstitium [1, 3] [nL/min] | mean lymphatic vessel diameter [1, 3] [μm] | injection rate [1, 4] [nL/min] | mean lymphatic vessel diameter [1, 4] [μm] | lymphatic fluid velocity compared with controls treated with D-NMMA or AP (FIG. 2A) ([1]; not ligated, result in words) | mean lymphatic vessel diameter compared with controls (FIG. 2C) ([1]; not ligated, result in words) | MAP (mean arterial pressure) [2] [mmHg] |
| --- | --- | --- | --- | --- | --- | --- | --- | --- | --- |
| CNC(=N)NCCC[C@H](N)C(=O)O [L-NMMA, NG-monomethyl-L-arginine] | 42 | 5.1±0.6 | 11.3 ± 1.2 | 61.5±0.7 | 25.0 ± 1.3 | 77.2±2.1 | significantly lower | not different | 71.7±1.4 |
| CN=C(N)NCCC[C@@H](N)C(=O)O [D-NMMA] | – | 8.7±0.4 | 15.7 ± 1.5 | 61.6±1.6 | – | – | – | – | – |
